Results as given in patent publication US6545131B1, “Tissue specific prodrug” (priority 1997, dated 2003).
Starred links: 1 amine or outer side, 2 acyl side, 3 side chain; linkers in the order of their positions; H or OH if unused. Residues, ends and D or L forms follow the SMILES beside them. *: point of attachment. AMC = Cc1cc(=O)oc2cc(N*)ccc12; Morpholide = C1CN(*)CCO1; CO = O=C([*:1])[*:2]

Legend:
[1] = biological target: T1, Cathepsin B (Homo sapiens, UniProt P07858); assay: PSA substrate cleavage by purified intracellular protease; format: biochemical; settings: 0.2 mM substrate, pH 7.8; SKLQ, KLQ, LQ in 1.4% acetonitrile/buffer, Q-AMC in 0.2% formic acid/buffer
T1 construct: purchased Sigma Chemical Co
Description: (§1) Cleavage was studied by measuring fluorescence change secondary to AMC release. Fluorescence detection was carried out with a Fluoroskan II 96 well fluorometric plate reader (ICN Biomedicals, Costa Mesa, Calif.), with excitation wavelength 355 nm and emission wavelength 460 nm. Data were collected and analyzed using Deltasoft III software (Biometallics, Princeton, N.J.). All reactions were performed at room temperature by the addition of substrate and proteases into PSA buffer, described below, in a final volume of 200 μL. The results were determined from the initial linear increase of fluorescence and were expressed as the picomoles of AMC released per minute based upon comparison to a standard curve of the fluorescence of known amounts of AMC (i.e., fluorescence was linear form 20 to 300 picomoles of AMC). The data were analyzed by Lineweaver-Burke reciprocal plots to determine the Michaelis-Menten constant (i.e., Km) expressed as the amount of substrate needed to saturate half of the enzyme and the catalytic rate constant (i.e., kcat) expressed as the amount of substrate converted to product per time per amount of enzyme.
(§2) A family of peptide substrates based upon the EHSSKLQ (SEQ ID NO:10) sequence was assayed for activity for the intracellular proteases, and the results given in Table 4.
(§3) The amino acid sequences expressed in one letter amino acid code represent the following amino acid sequences in the three letter amino acid code: EHSSKLQ (Glu-His-Ser-Ser-Lys-Leu-Gln; SEQ ID NO:10), The shorter sequences are formed by deleting amino acids from the amino terminal side of the sequence. Determinations listed in the table were carried out with substrates at 0.2 mM concentration in the PSA assay buffer (50 mM Tris/0.1M NaCl pH 7.8), except SKLQ (SEQ ID NO:1), KLQ and LQ, which were carried out in 1.4% acetonitrile/buffer and Q-AMC which was carried out in 0.2% formic acid/buffer, at pH 7.8. The entry “UD” stands for “undetectable” and means that at most, 0.1 pmole of substrate cleavage per minute per 200 pmole protease took place. Asterisks represent experiments not performed. Abbreviations are as follows: PSA (prostate specific antigen), Cath B, C, D (Cathepsins, B, C, D), Esterase (porcine liver esterase).

[2] = biological target: T2, Cathepsin C (Homo sapiens, UniProt P53634); assay: as above; format: biochemical; settings: 0.2 mM substrate, pH 7.8; SKLQ, KLQ, LQ in 1.4% acetonitrile/buffer, Q-AMC in 0.2% formic acid/buffer
T2 construct: purchased Sigma Chemical Co
T2 sequence (P53634 25-463): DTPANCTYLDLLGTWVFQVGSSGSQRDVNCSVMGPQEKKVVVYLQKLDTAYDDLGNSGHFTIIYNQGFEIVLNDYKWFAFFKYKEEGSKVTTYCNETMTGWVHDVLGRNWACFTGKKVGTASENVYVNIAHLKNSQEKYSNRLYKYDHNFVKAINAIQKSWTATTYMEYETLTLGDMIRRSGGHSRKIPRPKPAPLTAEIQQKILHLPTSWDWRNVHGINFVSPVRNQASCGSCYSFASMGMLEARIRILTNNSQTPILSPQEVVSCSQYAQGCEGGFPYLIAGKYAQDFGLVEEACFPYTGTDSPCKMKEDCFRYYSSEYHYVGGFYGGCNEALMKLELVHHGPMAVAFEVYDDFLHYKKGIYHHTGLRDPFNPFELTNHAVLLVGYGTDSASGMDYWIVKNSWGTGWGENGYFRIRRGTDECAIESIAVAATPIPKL
Description: as §1, §2, §3

[3] = test system: porcine liver esterase; assay: as above; format: biochemical; settings: 0.2 mM substrate, pH 7.8; SKLQ, KLQ, LQ in 1.4% acetonitrile/buffer, Q-AMC in 0.2% formic acid/buffer
Description: as §1, §2, §3

[4] = biological target: T3, Cathepsin D (Homo sapiens, UniProt P07339); assay: as above; format: biochemical; settings: 0.2 mM substrate, pH 7.8; SKLQ, KLQ, LQ in 1.4% acetonitrile/buffer, Q-AMC in 0.2% formic acid/buffer
T3 construct: purchased Sigma Chemical Co
T3 sequence (P07339 65-412): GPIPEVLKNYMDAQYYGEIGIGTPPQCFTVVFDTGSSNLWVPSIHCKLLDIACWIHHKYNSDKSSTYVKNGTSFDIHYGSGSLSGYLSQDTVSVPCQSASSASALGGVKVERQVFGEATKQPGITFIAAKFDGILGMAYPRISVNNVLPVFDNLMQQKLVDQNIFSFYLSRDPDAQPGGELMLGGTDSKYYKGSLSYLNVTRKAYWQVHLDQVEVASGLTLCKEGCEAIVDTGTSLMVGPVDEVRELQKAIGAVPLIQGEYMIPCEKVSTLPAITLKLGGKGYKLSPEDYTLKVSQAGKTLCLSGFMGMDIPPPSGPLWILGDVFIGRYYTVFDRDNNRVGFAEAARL
Description: as §1, §2, §3

[5] = biological target: T4, PSA (prostate specific antigen) (Homo sapiens, UniProt P07288); assay: Cleavage of AMC-labelled peptide substrates by purified PSA (fluorescence of released AMC; Lineweaver-Burke kinetics); format: biochemical; settings: for picomoles of peptide cleaved/min/200 picomoles protease: PSA: pH 7.8, SKLQ, KLQ, LQ in 1.4% acetonitrile/buffer, Q-AMC in 0.2% formic acid/buffer; for Kcat / Km: PSA substrate, PSA assay buffer pH 7.8, Lineweaver-Burke
T4 construct: PSA was purified from human seminal plasma; from tissue; host or cells: human seminal plasma
T4 sequence (P07288 25-261): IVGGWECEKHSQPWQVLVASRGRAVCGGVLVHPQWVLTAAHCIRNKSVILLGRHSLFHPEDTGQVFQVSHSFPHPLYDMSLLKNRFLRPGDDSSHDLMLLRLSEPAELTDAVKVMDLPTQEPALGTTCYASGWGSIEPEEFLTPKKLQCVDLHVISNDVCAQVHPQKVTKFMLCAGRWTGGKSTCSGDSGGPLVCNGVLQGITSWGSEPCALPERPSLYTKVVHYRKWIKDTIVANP
Description: (§4) The peptides discussed herein were custom synthesized by Enzyme Systems Products (Dublin, Calif.) and, after HPLC separation and purification to >95%, the molecular weights were confirmed by mass spectroscopy. All peptides had morpholinocarbonyl protecting the amino terminus and 7-amino-4-methylcoumarin (AMC) attached via an amide bond to the carboxyl group of the carboxy-terminal amino acid. Peptides were first dissolved in distilled water (5 mM) and then diluted into PSA assay buffer (50 mM Tris/0.1M NaCl pH 7.8). The glutamine-AMC peptide had the amino terminus and side chain amine unprotected and was obtained from Bachem (Torrance, Calif.).
(§5) PSA was purified from human seminal plasma as described in Christensson, et al. Eur. J. Biochem. 194:755-765, (1990). Plasmin, urokinase, tissue plasminogen activator (TPA), human plasma and porcine pancreatic kallikrein and a 1-antichymotrypsin were obtained from Calbiochem (San Diego, Calif.). All other proteases were obtained from Sigma Chemical Co. (St. Louis, Mo.). Mouse serum was obtained from East Acres Biologicals (South Bridge, Mass.). Goat and calf sera were obtained from Gibco BRL (Grand Island, N.Y.). Rat serum was obtained in-house from sacrificed animals. Human serum was obtained from volunteers.
as §1
(§6) Each assay contains 200 picomoles of the particular protease and 0.2 mM concentration of the particular substrate (i.e., 40,000 picomoles/200 μL of assay volume). The amino acid sequences expressed in one letter amino acid code represent the following amino acid sequences in the three letter amino acid code: EHSSKLQ (Glu-His-Ser-Ser-Lys-Leu-Gln; SEQ ID NO:10), QNKISYQ (Gln-Asn-Lys-Ile-Ser-Tyr-Gln; SEQ ID NO:11), ENKISYQ (Glu-Asn-Lys-Ile-Ser-Tyr-Gln; SEQ ID NO:12), and ATKSKQH (Ala-Thr-Lys-Ser-Lys-Gln-His; SEQ ID NO:13). Determinations listed in the table were carried out with substrates at 0.2 mM concentration in the PSA assay buffer (50 mM Tris/0.1M NaCl pH 7.8). The entry “UD” stands for “undetectable” and means that at most, 0.1 pmole of substrate cleavage per minute per 200 pmole protease took place. Asterisks represent experiments not performed. Abbreviations are as follows: PSA (prostate specific antigen), Chymo (chymotrypsin), Urokin (urokinase), TPA (tissue plasminogen activator), Thromb (thrombin), Kallik (human kallikrein, hK1).
The data in Table 2 are the results of kinetic experiments with the peptide substrates used in Example 1. Experimental details are found in Example 1.
The amino acid sequences expressed in one letter amino acid code represent the following amino acid sequences in the three letter amino acid code: EHSSKLQ (Glu-His-Ser-Ser-Lys-Leu-Gln; SEQ ID NO:10), HSSKLQ (His-Ser-Ser-Lys-Leu-Gln; SEQ ID NO:7), SKLQ (Ser-Lys-Leu-Gln; SEQ ID NO:1), and ATKSKQH (Ala-Thr-Lys-Ser-Lys-Gln-His; SEQ ID NO:13). […]

[6] = Stability of PSA substrates in serum (AMC release); format: in vitro ADME; settings: 0.2 mM substrate
Description: as §5, §1
Because the prodrug can be given systemically via the blood, it is useful to determine the stability of the substrates in sera from a variety of species. The substrates and experimental details are found as described in Example 1.
The amino acid sequences expressed in one letter amino acid code represent the following amino acid sequences in the three letter amino acid code: EHSSKLQ (Glu-His-Ser-Ser-Lys-Leu-Gln; SEQ ID NO:10), QNKISYQ (Gln-Asn-Lys-Ile-Ser-Tyr-Gln; SEQ ID NO:11), ENKISYQ (Glu-Asn-Lys-Ile-Ser-Tyr-Gln; SEQ ID NO:12) and ATKSKQH (Ala-Thr-Lys-Ser-Lys-Gln-His; SEQ ID NO:13). Determinations listed in the table were carried out with substrates at 0.2 mM concentration in the PSA assay buffer (50 mM Tris/0.1M NaCl pH 7.8). AMC is 7-amino-4-methylcoumarin. The human serum used was 100% for each assay. The entry “UD” stands for “undetectable”, and means that not more than 0.01 picomole of substrate per minute was cleaved.

[7] = test system: human kallikrein, hK1; assay: Peptide-AMC cleavage by purified extracellular protease; format: biochemical; settings: 0.2 mM substrate, PSA assay buffer pH 7.8
Description: as §4, §5, §1, §6

[8] = biological target: T5, thrombin (Homo sapiens, UniProt P00734); assay: as above; format: biochemical; settings: 0.2 mM substrate, PSA assay buffer pH 7.8
T5 construct: purchased Sigma Chemical Co
Description: as §4, §5, §1, §6

[9] = test system: Trypsin; assay: as above; format: biochemical; settings: 0.2 mM substrate, PSA assay buffer pH 7.8
Description: as §4, §5, §1, §6

[10] = biological target: T6, urokinase (Homo sapiens, UniProt P00749); assay: as above; format: biochemical; settings: 0.2 mM substrate, PSA assay buffer pH 7.8
T6 construct: purchased Calbiochem
Description: as §4, §5, §1, §6

[11] = biological target: T7, Plasmin (Homo sapiens, UniProt P00747); assay: as above; format: biochemical; settings: 0.2 mM substrate, PSA assay buffer pH 7.8
T7 construct: purchased Calbiochem
T7 sequence (P00747 581-810 limits assumed, species assumed): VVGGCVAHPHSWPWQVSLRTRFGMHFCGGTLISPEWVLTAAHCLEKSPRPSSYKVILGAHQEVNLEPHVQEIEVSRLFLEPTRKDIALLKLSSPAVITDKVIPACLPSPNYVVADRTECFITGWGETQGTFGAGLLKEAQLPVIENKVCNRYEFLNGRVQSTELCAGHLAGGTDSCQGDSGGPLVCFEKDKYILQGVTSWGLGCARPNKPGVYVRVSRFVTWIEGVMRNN
T7 sequence (P00747 97-580 partner limits assumed, species assumed): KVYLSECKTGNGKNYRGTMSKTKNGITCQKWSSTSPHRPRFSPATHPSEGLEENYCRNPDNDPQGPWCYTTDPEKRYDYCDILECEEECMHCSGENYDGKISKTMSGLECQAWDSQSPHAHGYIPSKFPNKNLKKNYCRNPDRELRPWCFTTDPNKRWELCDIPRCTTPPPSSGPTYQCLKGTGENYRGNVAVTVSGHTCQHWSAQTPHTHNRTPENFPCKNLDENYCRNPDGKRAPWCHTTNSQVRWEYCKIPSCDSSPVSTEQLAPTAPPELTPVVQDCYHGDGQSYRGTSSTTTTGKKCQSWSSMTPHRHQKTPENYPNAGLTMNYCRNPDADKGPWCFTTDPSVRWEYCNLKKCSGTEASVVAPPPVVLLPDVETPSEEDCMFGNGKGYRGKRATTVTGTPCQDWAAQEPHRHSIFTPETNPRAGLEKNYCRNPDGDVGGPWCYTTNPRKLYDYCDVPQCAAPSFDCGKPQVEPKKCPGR
Description: as §4, §5, §1, §6

[12] = biological target: T8, tissue plasminogen activator (TPA) (Homo sapiens, UniProt P00750); assay: as above; format: biochemical; settings: 0.2 mM substrate, PSA assay buffer pH 7.8
T8 construct: purchased Calbiochem
T8 sequence (P00750 36-562, species assumed): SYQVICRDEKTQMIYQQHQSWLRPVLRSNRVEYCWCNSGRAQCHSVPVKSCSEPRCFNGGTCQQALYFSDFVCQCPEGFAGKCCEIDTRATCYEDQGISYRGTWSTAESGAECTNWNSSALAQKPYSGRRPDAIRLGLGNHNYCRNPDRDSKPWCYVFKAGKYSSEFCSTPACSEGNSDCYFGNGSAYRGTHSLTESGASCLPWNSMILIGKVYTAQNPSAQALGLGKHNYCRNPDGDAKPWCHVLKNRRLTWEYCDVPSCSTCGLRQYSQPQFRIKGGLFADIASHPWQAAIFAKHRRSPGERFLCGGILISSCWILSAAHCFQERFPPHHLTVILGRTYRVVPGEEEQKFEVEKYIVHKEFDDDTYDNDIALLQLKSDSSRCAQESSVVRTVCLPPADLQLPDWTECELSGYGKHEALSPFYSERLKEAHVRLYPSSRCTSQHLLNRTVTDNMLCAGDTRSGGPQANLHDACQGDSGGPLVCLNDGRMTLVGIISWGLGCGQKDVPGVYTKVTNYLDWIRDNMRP
Description: as §4, §5, §1, §6

[13] = biological target: T9, chymotrypsin (Bos taurus, UniProt P00766); assay: as above; format: biochemical; settings: 0.2 mM substrate, PSA assay buffer pH 7.8
T9 construct: purchased Sigma Chemical Co
Description: as §4, §5, §1, §6

[14] = test system: Elastase; assay: as above; format: biochemical; settings: 0.2 mM substrate, PSA assay buffer pH 7.8
Description: as §4, §5, §1, §6

SMILES: Cc1cc(=O)oc2cc(NC(=O)[C@H](CCC(N)=O)NC(=O)[C@H](CC(C)C)NC(=O)[C@H](CCCCN)NC(=O)[C@H](CO)NC(=O)[C@H](CO)NC(=O)[C@H](Cc3c[nH]cn3)NC(=O)N3CCOCC3)ccc12 [HSSKLQ, His-Ser-Ser-Lys-Leu-Gln] ({Morpholide-CO}-HSSKLQ-{AMC})
- picomoles of peptide cleaved/min/200 picomoles protease: Cath B [1]: 17.3 picomoles/min/200 picomoles pr
- picomoles of peptide cleaved/min/200 picomoles protease: Cath C [2]: UD (at most, 0.1 pmole of substrate cleavage per minute per 200 pmole protease took place)
- picomoles of peptide cleaved/min/200 picomoles protease: Esterase [3]: UD (at most, 0.1 pmole of substrate cleavage per minute per 200 pmole protease took place)
- picomoles of peptide cleaved/min/200 picomoles protease: Cath D [4]: 3.8 picomoles/min/200 picomoles pr
- picomoles of peptide cleaved/min/200 picomoles protease: PSA ([5]; 0.2 mM substrate): 62.7 picomoles/min/200 picomoles pr
- Kcat [5]: 0.011 s⁻¹
- Km [5]: 470 µM

SMILES: Cc1cc(=O)oc2cc(NC(=O)[C@H](CCC(N)=O)NC(=O)[C@H](CC(C)C)NC(=O)[C@H](CCCCN)NC(=O)[C@H](CO)NC(=O)N3CCOCC3)ccc12 [SKLQ, Ser-Lys-Leu-Gln] ({Morpholide-CO}-SKLQ-{AMC})
- picomoles of peptide cleaved/min/200 picomoles protease: Cath B [1]: 31.2 picomoles/min/200 picomoles pr
- picomoles of peptide cleaved/min/200 picomoles protease: Cath C [2]: UD (at most, 0.1 pmole of substrate cleavage per minute per 200 pmole protease took place)
- picomoles of peptide cleaved/min/200 picomoles protease: Esterase [3]: UD (at most, 0.1 pmole of substrate cleavage per minute per 200 pmole protease took place)
- picomoles of peptide cleaved/min/200 picomoles protease: Cath D [4]: 6.4 picomoles/min/200 picomoles pr
- picomoles of peptide cleaved/min/200 picomoles protease: PSA ([5]; 0.2 mM substrate): 29.6 picomoles/min/200 picomoles pr
- Kcat [5]: 0.020 s⁻¹
- Km [5]: 813 µM

SMILES: CC[C@H](C)[C@H](NC(=O)[C@H](CCCCN)NC(=O)[C@H](CC(N)=O)NC(=O)[C@H](CCC(=O)O)NC(=O)N1CCOCC1)C(=O)N[C@@H](CO)C(=O)N[C@@H](Cc1ccc(O)cc1)C(=O)N[C@@H](CCC(N)=O)C(=O)Nc1ccc2c(C)cc(=O)oc2c1 [ENKISYQ, Glu-Asn-Lys-Ile-Ser-Tyr-Gln] ({Morpholide-CO}-ENKISYQ-{AMC})
- picomles AMC released/minute: Calf [6]: UD (not more than 0.01 picomole of substrate per minute was cleaved)
- picomles AMC released/minute: Fetal Calf [6]: 9.59 picomoles/minute
- picomles AMC released/minute: Goat [6]: 3.18 picomoles/minute
- picomles AMC released/minute: Mouse [6]: 3.71 picomoles/minute
- picomles AMC released/minute: Rat [6]: 11.2 picomoles/minute
- picomles AMC released/minute: Human ([6]; human serum 100%): 1.27 picomoles/minute
- Picomoles of substrate cleaved/minute/200 pmoles of indicated protease: PSA ([5]; 0.2 mM substrate, PSA assay buffer pH 7.8, room temperature): 14.4 picomoles/minute/200 pmoles pr
- Picomoles of substrate cleaved/minute/200 pmoles of indicated protease: Kallik [7]: UD (at most, 0.1 pmole of substrate cleavage per minute per 200 pmole protease took place)
- Picomoles of substrate cleaved/minute/200 pmoles of indicated protease: Thromb [8]: 0.3 picomoles/minute/200 pmoles pr
- Picomoles of substrate cleaved/minute/200 pmoles of indicated protease: Trypsin [9]: 1.8 picomoles/minute/200 pmoles pr
- Picomoles of substrate cleaved/minute/200 pmoles of indicated protease: Urokin [10]: UD (at most, 0.1 pmole of substrate cleavage per minute per 200 pmole protease took place)
- Picomoles of substrate cleaved/minute/200 pmoles of indicated protease: Plasmin [11]: 0.6 picomoles/minute/200 pmoles pr
- Picomoles of substrate cleaved/minute/200 pmoles of indicated protease: TPA [12]: .04 picomoles/minute/200 pmoles pr
- Picomoles of substrate cleaved/minute/200 pmoles of indicated protease: Chymo [13]: 3.6 picomoles/minute/200 pmoles pr
- Picomoles of substrate cleaved/minute/200 pmoles of indicated protease: Elastase [14]: 2.6 picomoles/minute/200 pmoles pr
